# ChEMBL document CHEMBL4364250, “Improvement of Asparagine Ethylenediamines as Anti-malarial Plasmodium-Selective Proteasome Inhibitors” (J Med Chem, 2019)
# Active and inactive are the calls of the source. The calls are words filed in the database; no cut-off is given here.
# How the values were obtained:
# [1] = Clearance in mouse liver microsomes; type: ADME, Microsome; details: read-out: CLH
# HepG2 = experiment: Cytotoxicity against human HepG2 cells; type: cell-based
# [2] = test system: beta5 subunit of human 20S constitutive proteasome; experiment: Selectivity ratio of IC50 for human beta5 20S constitutive proteasome to IC50 for Plasmodium falciparum 20S proteasome beta5 subunit; type: toxicity; details: read-out: Ratio IC50
# Plasmodium falciparum [3] = experiment: Inhibition of MV151 binding to Plasmodium falciparum 20S proteasome beta5 subunit A49S mutant at 1.2 to 33.3 uM preincubated for 1 hr followed by MV151 addition and measured after 1 hr by fluorescence assay
# Plasmodium falciparum [4] = experiment: Antimalarial activity against erythrocytic stage of Plasmodium falciparum Dd2 measured after 72 hrs by SYBR green dye based fluorescence assay; type: functional, organism-based; details: Dd2, 72 h
# Karpas-1106P = experiment: Cytotoxicity against human KARPAS1106P cells; type: cell-based
# [5] = Clearance in human liver microsomes; type: ADME, Microsome; details: read-out: CLH
# [6] = biological target: T1, Proteasome subunit beta type-8 (Homo sapiens, UniProt P28062); experiment: Inhibition of human beta5 20S immunoproteasome using Ac-ANW-AMC as substrate; details: for inhibition (INH): human
# T1 sequence (P28062 whole entry): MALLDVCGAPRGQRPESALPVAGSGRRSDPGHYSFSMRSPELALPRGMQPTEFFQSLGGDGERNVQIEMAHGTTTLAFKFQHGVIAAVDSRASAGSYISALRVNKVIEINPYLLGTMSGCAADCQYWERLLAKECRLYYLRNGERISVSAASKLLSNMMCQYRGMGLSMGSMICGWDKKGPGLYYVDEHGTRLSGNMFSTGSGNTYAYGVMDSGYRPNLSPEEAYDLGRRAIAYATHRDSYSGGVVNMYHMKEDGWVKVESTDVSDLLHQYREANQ
# [7] = Clearance in rat liver microsomes; type: ADME, Microsome; details: read-out: CLH
# [8] = test system: beta5 subunit of human 20S immunoproteasome; experiment: Selectivity ratio of IC50 for human beta5 20S immunoproteasome to IC50 for Plasmodium falciparum 20S proteasome beta5 subunit; type: toxicity; details: read-out: Ratio IC50
# Plasmodium falciparum [9] = experiment: Antimalarial activity against erythrocytic stage of Plasmodium falciparum Dd2 harboring 20S beta2 proteasome A117D mutant measured after 72 hrs by SYBR green dye based fluorescence assay; type: functional, organism-based; details: Dd2, 72 h
# Plasmodium falciparum [10] = experiment: Resistance index, ratio of EC50 for erythrocytic stage of Plasmodium falciparum Dd2 harboring 20S beta5 proteasome A49S mutant to EC50 erythrocytic stage of Plasmodium falciparum Dd2; type: functional
# [11] = biological target: T2, Proteasome Macropain subunit MB1 (Homo sapiens, UniProt P28074); experiment: Inhibition of human beta5 20S constitutive proteasome using suc-LLVY-AMC as substrate; details: for inhibition (INH): human
# T2 sequence (P28074 whole entry): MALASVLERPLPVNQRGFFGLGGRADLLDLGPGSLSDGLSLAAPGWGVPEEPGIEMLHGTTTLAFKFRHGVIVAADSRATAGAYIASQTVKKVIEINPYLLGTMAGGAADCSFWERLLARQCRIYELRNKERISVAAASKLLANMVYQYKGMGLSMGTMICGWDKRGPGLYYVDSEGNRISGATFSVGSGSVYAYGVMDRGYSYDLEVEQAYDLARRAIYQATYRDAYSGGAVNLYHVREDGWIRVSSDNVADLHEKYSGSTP
# Plasmodium falciparum [12] = experiment: Antimalarial activity against erythrocytic stage of Plasmodium falciparum Dd2 measured after 72 hrs in presence of 20S beta2 inhibitor WLW-VS by SYBR green dye based fluorescence assay; type: functional, organism-based
# Plasmodium falciparum [13] = experiment: Antimalarial activity against erythrocytic stage of Plasmodium falciparum 3D7 measured after 72 hrs by SYBR green dye based fluorescence assay; type: functional, organism-based; details: 3D7, 72 h
# [14] = (§1) Inhibition of Plasmodium falciparum 20S proteasome beta5 subunit using suc-LLVY-AMC as substrate in presence of beta2 inhibitor WLW-VS
# Plasmodium falciparum [15] = experiment: Resistance index, ratio of EC50 for erythrocytic stage of Plasmodium falciparum Dd2 harboring 20S beta6 proteasome A117D mutant to EC50 erythrocytic stage of Plasmodium falciparum Dd2
# [16] = Permeability of the compound at pH 7.4 by PAMPA; type: ADME; details: read-out: permeability
# Plasmodium falciparum [17] = experiment: Antimalarial activity against erythrocytic stage of Plasmodium falciparum Dd2 harboring 20S beta5 proteasome A49S mutant measured after 72 hrs by SYBR green dye based fluorescence assay; type: functional, organism-based; details: Dd2, 72 h
# Plasmodium falciparum [18] = experiment: as §1
# Plasmodium falciparum [19] = experiment: Inhibition of MV151 binding to Plasmodium falciparum 20S proteasome beta5 subunit preincubated for 1 hr followed by MV151 addition and measured after 1 hr by fluorescence assay
# Plasmodium falciparum [20] = experiment: microbe, parasite or virus in culture; details: 72 h
# Description: Antimalarial activity against Plasmodium falciparum clinical isolate measured after 72 hrs by SYBR green dye based fluorescence assay
# Plasmodium falciparum [21] = experiment: Inhibition of MV151 binding to Plasmodium falciparum 20S proteasome beta2 subunit preincubated for 1 hr followed by MV151 addition and measured after 1 hr by fluorescence assay
# Plasmodium falciparum [22] = experiment: Inhibition of MV151 binding to Plasmodium falciparum 20S proteasome beta1 subunit preincubated for 1 hr followed by MV151 addition and measured after 1 hr by fluorescence assay
Structure (SMILES),microsomal CLint [1] [µL/min/mg],EC50 (HepG2) [nM],selectivity ratio [2],EC50 (Plasmodium falciparum [4]) [nM],EC50 (Karpas-1106P) [nM],microsomal CLint [5] [µL/min/mg],IC50 [6] [nM],microsomal CLint [7] [µL/min/mg],selectivity ratio [8],EC50 (Plasmodium falciparum [9]) [nM],Ratio EC50 (Plasmodium falciparum [10]),IC50 [11] [nM],EC50 (Plasmodium falciparum [13]) [nM],IC50 [14] [nM],Ratio EC50 (Plasmodium falciparum [15]),Papp [16] [×10⁻⁶ cm/s],EC50 (Plasmodium falciparum [17]) [nM],inhibition (INH) [6],inhibition (INH) [11],inhibition (Plasmodium falciparum [18]),also measured
Cc1ccc(S(=O)(=O)N[C@@H](CC(=O)NC(C)(C)C)C(=O)NCCNC(=O)c2ccccc2)cc1,64,> 11000,68,7.7,> 11100,122,100,66,4.8,111,17,1410,8.4,20.8,14,13.7,135,–,–,–,inhibition (Plasmodium falciparum [3]): Active; Activity (Plasmodium falciparum [12]): Active
Cc1ccc(S(=O)(=O)N[C@@H](CC(=O)NC(C)(C)C)C(=O)NCCNC(=O)c2cc(C)ccc2F)cc1,–,> 11000,581,–,> 11100,–,384,–,19,–,–,12000,13.9,20.7,–,–,–,Dose-dependent effect,Dose-dependent effect,Dose-dependent effect,–
C#Cc1cccc(C(=O)NCCNC(=O)[C@H](CC(=O)NC(C)(C)C)NS(=O)(=O)c2ccc(C)cc2)c1,97,> 11000,91,3.3,> 11100,61,112,61,24,61.9,152,430,3.1,4.7,19,20.3,502,Dose-dependent effect,Dose-dependent effect,Dose-dependent effect,inhibition (Plasmodium falciparum [19]): Dose-dependent effect; EC50 (Plasmodium falciparum [20]): 7.1 nM
Cc1ccc(S(=O)(=O)N[C@@H](CC(=O)NC(C)(C)C)C(=O)NCCNC(=O)c2ccccc2F)cc1,141,> 11000,36,–,> 11100,141,169,124,5.3,–,–,1140,7.5,32,–,10.5,–,–,–,–,inhibition (Plasmodium falciparum [21]): inactive; inhibition (Plasmodium falciparum [22]): inactive
